From patent publication US12622915B2, “Methods of treating PDE IV-mediated diseases or conditions” (Vanda Pharmaceuticals Inc., priority 2020, dated 2026)

What was measured:
[1] = system: PMA-induced ear thickening and ear weight gain; assay: PMA-induced ear inflammation model (Example 1); assay type: in vivo, BALB/c; conditions: 6 hours post PMA, topical 0.5% w/v on both ears 30 min before and 15 min after PMA
Procedure: Animals in group 2, 3, and 4 receive dexamethasone, Crisaborole and the compound of Formula (I), respectively (as a solution in acetone and ethanol by 1:1 ratio), 30 min before PMA challenge, on both ears.
• −24 hr—Randomization (body weight based) • −30 min—Treatment Topical • 0 min—Disease Induction PMA application • 15 min—Treatment Topical • 6 hr—Skin Thickness, Skin Collection (Cohort 1) • 24 hr—Skin Thickness, Skin Collection (Cohort 2)
5 μg/20 μl/right ear and 5 μg/20 μl/left ear (2.5 μg/10 μl in anterior and posterior surface of both ears)
Phorbol 12-myristate 13-acetate (PMA) is formulated in acetone at a concentration of 250 μg/ml. This working solution is applied topically to the anterior and posterior surface of both the ear (10 μl each side).
Ear thickness (both right and left ear): at −1 hr (before PMA challenge), 6 hr and 24 hrs post PMA challenge.
At 6 hr and 24 hrs, respective cohort of animals are euthanized, and ear tissues are collected. […] Left ears are collected and preserved in 10% NBF for Histopathology.

Phosphodiesterase PDE3A = target: T1, Phosphodiesterase PDE3A (Homo sapiens, UniProt Q14432); assay: Phosphodiesterase PDE3A enzyme assay; assay type: biochemical; conditions: N=2, Example 3
T1 construct: host or cells: insect Sf9 cells
From the text: (§1) Reference standards are run as an integral part of each assay to ensure the validity of the results obtained. Reference Compounds: • Phosphodiesterase PDE10A2 Papaverine • Phosphodiesterase PDE11A4 Dipyridamole • Phosphodiesterase PDE1A MMPX • Phosphodiesterase PDE2A EHNA • Phosphodiesterase PDE3A Cilostamide • Phosphodiesterase PDE4A1A Rolipram • Phosphodiesterase PDE4B1 Rolipram • Phosphodiesterase PDE5A Zaprinast • Phosphodiesterase PDE6 Zaprinast • Phosphodiesterase PDE7A IBMX • Phosphodiesterase PDE7B IBMX • Phosphodiesterase PDE8A1 Dipyridamole • Phosphodiesterase PDE9A2 Zaprinast
(§2) Phosphodiesterase PDE4A1A; Phosphodiesterase PDE4B1; Phosphodiesterase PDE10A2; Phosphodiesterase PDE11A4; Phosphodiesterase PDE2A; Phosphodiesterase PDE3A; Phosphodiesterase PDE7A; Phosphodiesterase PDE7B; and Phosphodiesterase PDE8A1: • Source: Human recombinant insect Sf9 cells • Substrate: 0.10 μM FAM-cAMP • Vehicle: 1.00% DMSO • Significance Crit.: ≥50% of max stimulation or inhibition • Incubation Buffer: 10 mM Tris-HCl, pH 7.2, 10 mM MgCl2, 0.05% NaN3, 0.1% phosphate-free BSA • Quantitation Method: Quantitation of Fluorescein-AMP-IMAP • Pre-Incub. Time/Temp: 15 minutes @25° C. • Incubation Time/Temp: 30 minutes @25° C.
IC50 values are determined by a non-linear, least squares regression analysis using MathIQ™ (ID Business Solutions Ltd., UK). […]

[2] = Ocular instillation studies; assay type: in vivo; conditions: preclinical ocular instillation studies
[3] = target: T2, Phosphodiesterase PDE4A1A (Homo sapiens, UniProt P27815); assay: Phosphodiesterase PDE4A1A enzyme assay; assay type: biochemical
T2 construct: host or cells: insect Sf9 cells
From the text: as §1
PDE4 assays are performed using methods adapted from the literature. See Richter W, et al. (2001) Identification of inhibitor binding sites of the cAMP-specific phosphodiesterase 4. Cell Signal. 13(4): 287-297; Wang H, et al. (2005) Multiple elements jointly determine inhibitor selectivity of cyclic nucleotide phosphodiesterases 4 and 7. J Biol Chem. 280(35): 30949-30955.
as §2
(§3) IC50 values are determined by a non-linear, least squares regression analysis using MathIQ™ (ID Business Solutions Ltd., UK). Where inhibition constants (Ki) are presented, the Ki values are calculated using the equation of Cheng and Prusoff (Cheng, Y., Prusoff, W. H., Biochem. Pharmacol. 22:3099-3108, 1973) using the observed IC50 of the tested compound, the concentration of radioligand employed in the assay, and the historical values for the KD of the ligand. Where presented, the Hill coefficient (nH), defining the slope of the competitive binding curve, is calculated using MathIQ™. […] Where IC50, Ki, and/or nH data are presented without Standard Error of the Mean (SEM), data are insufficient to be quantitative, and the values presented (Ki, IC50, nH) are interpreted with caution.
Reference standards are run as an integral part of each assay to ensure the validity of the results obtained. Rolipram is used for the PDE4 assays.
Phosphodiesterase PDE4A1A: • Source: Human recombinant insect Sf9 cells • Substrate: 0.10 μM FAM-cAMP • Vehicle: 1.00% DMSO • Significance Crit.: ≥50% of max stimulation or inhibition • Incubation Buffer: 10 mM Tris-HCl, pH 7.2, 10 mM MgCl2, 0.05% NaN3, 0.1% phosphate-free BSA • Quantitation Method: Quantitation of Fluorescein-AMP-IMAP • Pre-Incub. Time/Temp: 15 minutes @25° C. • Incubation Time/Temp: 30 minutes @25° C.
as §3, with “W.H.,” for “W. H.,”

T2 sequence (P27815 1-647 isoform P27815-4): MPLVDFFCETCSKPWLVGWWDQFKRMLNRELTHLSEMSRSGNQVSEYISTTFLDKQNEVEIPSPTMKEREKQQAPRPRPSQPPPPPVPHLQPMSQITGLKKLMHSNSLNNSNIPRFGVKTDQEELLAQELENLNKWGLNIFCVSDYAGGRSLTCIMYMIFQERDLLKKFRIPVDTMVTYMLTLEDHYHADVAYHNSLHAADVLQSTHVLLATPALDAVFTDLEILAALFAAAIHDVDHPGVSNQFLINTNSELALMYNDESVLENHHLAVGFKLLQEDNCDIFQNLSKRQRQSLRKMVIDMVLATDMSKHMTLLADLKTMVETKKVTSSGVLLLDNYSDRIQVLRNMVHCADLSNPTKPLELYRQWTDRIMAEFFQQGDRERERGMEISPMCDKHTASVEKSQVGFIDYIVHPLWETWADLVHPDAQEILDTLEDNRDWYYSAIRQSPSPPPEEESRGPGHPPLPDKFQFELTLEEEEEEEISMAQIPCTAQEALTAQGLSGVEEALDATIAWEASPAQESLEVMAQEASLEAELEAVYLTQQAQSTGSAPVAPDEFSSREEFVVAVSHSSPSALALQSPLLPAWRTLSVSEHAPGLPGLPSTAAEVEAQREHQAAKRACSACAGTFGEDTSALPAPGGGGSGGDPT
T1 sequence (Q14432 whole entry): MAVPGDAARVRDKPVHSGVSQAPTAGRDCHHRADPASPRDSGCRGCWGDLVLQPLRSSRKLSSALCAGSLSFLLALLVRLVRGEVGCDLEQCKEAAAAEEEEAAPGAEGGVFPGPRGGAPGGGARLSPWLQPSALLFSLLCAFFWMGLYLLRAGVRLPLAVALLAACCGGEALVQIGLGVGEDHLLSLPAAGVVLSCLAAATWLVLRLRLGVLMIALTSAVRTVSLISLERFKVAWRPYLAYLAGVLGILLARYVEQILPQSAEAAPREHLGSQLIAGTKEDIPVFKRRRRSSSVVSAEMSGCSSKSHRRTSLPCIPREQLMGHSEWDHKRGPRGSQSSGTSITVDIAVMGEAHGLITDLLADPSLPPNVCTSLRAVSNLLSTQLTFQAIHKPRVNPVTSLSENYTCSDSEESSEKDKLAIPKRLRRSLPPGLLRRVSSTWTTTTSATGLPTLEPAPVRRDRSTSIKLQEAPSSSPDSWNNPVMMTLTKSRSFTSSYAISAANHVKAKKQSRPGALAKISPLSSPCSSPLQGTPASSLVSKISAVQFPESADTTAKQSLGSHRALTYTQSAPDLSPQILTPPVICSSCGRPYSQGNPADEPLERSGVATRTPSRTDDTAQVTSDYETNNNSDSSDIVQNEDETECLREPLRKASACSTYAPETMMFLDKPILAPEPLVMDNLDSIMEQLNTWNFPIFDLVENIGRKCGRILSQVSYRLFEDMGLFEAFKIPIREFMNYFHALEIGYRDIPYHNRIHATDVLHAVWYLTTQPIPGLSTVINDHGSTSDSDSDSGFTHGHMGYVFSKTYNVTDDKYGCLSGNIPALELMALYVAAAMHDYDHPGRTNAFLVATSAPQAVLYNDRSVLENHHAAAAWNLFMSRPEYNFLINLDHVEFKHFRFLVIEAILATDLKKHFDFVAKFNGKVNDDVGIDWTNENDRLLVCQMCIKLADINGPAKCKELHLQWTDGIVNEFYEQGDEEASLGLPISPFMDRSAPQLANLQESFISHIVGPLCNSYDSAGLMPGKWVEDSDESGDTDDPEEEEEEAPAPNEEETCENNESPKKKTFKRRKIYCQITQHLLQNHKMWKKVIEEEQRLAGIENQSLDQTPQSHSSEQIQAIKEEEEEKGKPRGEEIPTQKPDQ

inhibition at 10 µM (Phosphodiesterase PDE3A): 6% | inhibition at 0.01 µM ([3]; 10 nM, N=2, Example 4): 23% | inhibition at 0.03 µM ([3]; 0.03 μM, N=2, Example 4): 37% | inhibition at 0.1 µM ([3]; 0.1 μM, N=2, Example 4): 58% | inhibition at 0.3 µM ([3]; 0.3 μM, N=2, Example 4): 75% | inhibition at 1 µM ([3]; 1 μM, N=2, Example 4): 87% | inhibition at 3 µM ([3]; 3 μM, N=2, Example 4): 93% | inhibition at 10 µM ([3]; N=2, Example 3): 99% | inhibition at 10 µM ([3]; N=2, Example 4): 96% | IC50 ([3]; Example 4): 63 nM
Structure (SMILES): CNc1nc(Nc2ccccc2)nc(OCC(F)(F)C(F)F)n1 [compound of Formula (I), N^2-methyl-N^4-phenyl-6-(2,2,3,3-tetrafluoropropoxy)-1,3,5-triazine-2,4-diamine]
PMA-induced ear thickening [1]: prevents or reduces | PMA-induced ear weight gain [1]: prevents or reduces | Tolerability on ocular instillation [2]: well tolerated
